For assay [1], the system named is NOD mice. Description: Incidence of diabetes in NOD mice treated through drinking water. It counts as in vivo, mouse. How it is done:
Blocking the activity of PGS-2 with drugs that reduce PG production can be used to prevent or slow the development of IDD disease. When NOD mice with established, active autoimmune disease are treated through their drinking water with a combination of drugs, including a PGS-1/PGS-2 inhibitor, low dose indomethacin (3 μg/ml), in conjunction with an inducible nitric oxide synthase (iNOS) inhibitor, aminoguanidine, which potentiates the effects of indomethacin, the incidence of diabetes in NOD mice drops by 42% in comparison to control animals and animals treated with either low dose indomethacin or aminoguanidine alone.
Treatment of NOD mice at a time when autoimmunity is in its final stages with high doses (15 μg/ml) of indomethacin alone reduces the incidence of diabetes from 77% to 22%.

Assay [2] relates to monocytes. Description: PGE2 production by monocytes, specific ELISA. It counts as cell-based, human. The text has this:
In addition to the expression of PGS-2, the production of PGE2 by monocytes from these same control and autoimmune individuals was examined.
For orientation: In an ELISA, binding on a coated surface is turned into a signal by an enzyme label.

The subject of assay [3] is monocytes. Description: TNFα and IL-1β in supernatants of monocytes cultured 24 hours. It counts as cell-based, human. To be noted: monocytes cultured in vitro 24 hours. As for the experimental part: The expression of PGS-2 can be induced by several factors including cytokines produced by monocytes such as TNFα and IL-1β. To evaluate the possibility that monocytes of pre-IDD subjects produce large quantities of IL-1 and TNFα which induces PGS-2, the levels of these cytokines were measured in supernatants of monocytes cultured in vitro for 24 hours from pre-IDD and healthy controls. […] The lower levels of these cytokines is consistent with the constitutive production of prostaglandins which suppress the production of both TNFα and IL-1β.

The next assay has as its system PGS-2 mRNA. Description: PGS-2 mRNA expression in monocytes by RT-PCR. It counts as cell-based, human. As for the experimental part: RT-PCR detection of PGS-2 mRNA in human monocytes. Human peripheral blood is collected in sterile green top 10 ml tubes. Assays are preferably performed with 5 ml or more of blood. The blood is then centrifuged on a ficoll gradient for 30 minutes at 1500 rpm. Monocytes are isolated to >80% purity by adherence for 2 hours to a plastic culture surface. Cells are then cultured overnight in RMPI-1640 plus endotoxin-free fetal calf sera. The cells are harvested after 16 hours of culture by cold Ca^++/Mg^++-free PBS, the cells are counted, and viability is assessed. Monocytes cultured in 10 μg/ml LPS serve as a positive control for each sample tested. The poly mRNA is then harvested from a standard 10^5 monocytes using a kit (Quiagen). The mRNA is then reverse transcribed in a standard reaction mixture. The cDNA is then amplified by PGS-2-specific primers designed by our laboratory using a standard […] for 45 cycles. The PCR product is then run out on agarose gels with known standards and the size confirmed. β-actin is used as an internal control in these reactions. The identity of RT-PCR products were confirmed by size and Southern blotting using a PGS-2-specific labeled internal probe.
Monocytes were examined from ICA+ humans with a high risk of developing IDD, individuals with established SLE and autoimmune thyroid disease, and healthy controls. A portion of the pre-diabetic ICA+ individuals examined are enrolled in an IDD trial where they receive daily subcutaneous insulin as a preventative therapy. Monocytes of humans without autoimmune disease infrequently express PGS-2 mRNA (12%), whereas monocytes from subjects who are at high risk for the development of IDD express PGS-2 at a highly significant frequency (84%, p<0.0001).

For assay [4], the system named is monocytes. Description: Monokine production in monocyte culture supernatants with and without NS-398. It counts as cell-based, human. The settings on record: monocytes of healthy controls and pre-diabetic population. The text has this:
The monocyte production of the monokines IL-1β, TNFα, IL-1RA, and IL-10 in culture supernatants from healthy controls and the pre-diabetic population in the presence and absence of the PGS-2-specific inhibitor, NS-398, have been evaluated. […] It has also been determined that, despite enhanced levels of PGS-2 and PGE2 in diabetic and pre-diabetic individuals, there is no corresponding increase in IL-10. […] Therefore, a further aspect of the subject invention is a method for detecting evidence of autoimmune disease, particularly diabetes, which comprises evaluating monocytes to determine if those monocytes have a reduced response to IL-10 with regard to PGS-2 expression. Such reduced response would be evidence of disease. In accordance with these findings, compounds that inhibit prostaglandin production can be used to modulate the production of anti-inflammatory monokines in order to limit the immune response. The spontaneous expression of PGS-2 and the production of PGE2 by pre-diabetic monocytes may influence their function, limiting their ability to produce monokines that would have a potent effect on limiting the autoimmune response to the β-cells of the islet and therefore would promote the progression to diabetes.

The subject of assay [5] is NOD mice. Description: PGE2 production by monocytes of NOD mice after IL-10 administration. In kind it is in vivo, mouse. To be noted: administration of IL-10.

Marks after values point to notes of the source that are not given here.

This is an account of results in patent US6953578B2, “Materials and methods for detection and treatment of immune system dysfunctions” (University of Florida Research Foundation, Inc., priority 1996, dated 2005).

In the case of `COc1ccc2c(c1)c(CC(=O)O)c(C)n2C(=O)c1ccc(Cl)cc1` [indomethacin], the “development of IDD” value in the assay on NOD mice [1] (NOD mice treated at an early stage of disease) is reported as “effectively blocks the development of IDD”. In addition, the incidence of diabetes with NOD mice [1] (NOD mice, autoimmunity in final stages, indomethacin alone 15 μg/ml, untreated 77%) is listed as 22%.

For insulin, the PGE2 in the assay on monocytes [2] (monocytes of ICA+/PGS-2+ subjects on insulin therapy) stood at 5805 ± 1544 pg/mL. In the assay on monocytes [3], the “TNFα and IL-1β levels, insulin-treated versus untreated pre-IDD” value is “no significant differences”. Also, the “% PGS-2 +” value in the assay on PGS-2 mRNA (ICA+ pre-IDD subjects, insulin-treated, Table 6) is 73.6** %. In addition, the “% Positive (PGS-2 mRNA)” value in the assay on PGS-2 mRNA (ICA+ subjects on daily subcutaneous preventative insulin, Table 2) is on record as 71%. The “PGS-2 mRNA or protein expression” value with PGS-2 mRNA (preventative insulin therapy in ICA+ subjects) is “does not appear to affect”.

Consider `CS(=O)(=O)Nc1ccc([N+](=O)[O-])cc1OC1CCCCC1` [NS-398], for which the “production of PGE2” value with monocytes [2] (monocytes of control and autoimmune individuals, FIG. 1) is “completely blocked”. In the assay on monocytes [2] (monocytes of individuals at high risk for IDD), the “PGS-2 production in vitro” value is “effectively blocks all PGS-2 production”. For the same molecule, in the assay with monocytes [4], the “production of IL-1RA” value is on record as “promotes the production” and the “production of IL-10” value was “promotes the production”.

B1: IL-10: monokine that tends to downregulate inflammation and immune responses (protein, UniProt P22301 19-178, looked up)
Interleukin-10: SPGQGTQSENSCTHFPGNLPNMLRDLRDAFSRVKTFFQMKDQLDNLLLKESLLEDFKGYLGCQALSEMIQFYLEEVMPQAENQDPDIKAHVNSLGENLKTLRLRLRRCHRFLPCENKSKAVEQVKNAFNKLQEKGIYKAMSEFDIFINYIEAYMTMKIRN
Consider B1, for which the “PGE2 production by monocytes” value in the assay on NOD mice [5] is listed as “does not inhibit PGE2 production”.
